In ChEMBL document CHEMBL6153137, “Design, Synthesis, and Biological Evaluation of Novel Orally Available Covalent CDK12/13 Dual Inhibitors for the Treatment of Tumors” (J Med Chem, 2025):
In brackets after ≈: the same amount, converted by molar mass.

Columns and labels:
SUM149PT = assay: Antiproliferative activity against human SUM149PT cells assessed as inhibition of cell growth incubated for 7 days by CellTiter-Glo reagent based luminescence analysis; type: functional; conditions: 168 h
[1] = biological target: Cyclin-dependent kinase 13/Cyclin-K (Homo sapiens, UniProt Q14004); assay: Inhibition of CDK13/Cyclin K (unknown origin) using pS7-CTD peptide and ATP as substrate incubated for 120 mins by ADP-Glo reagent based luminescence analysis; type: protein-complex assay
CDK12/Cyclin K = CDK12/Cyclin K (Homo sapiens, UniProt Q9NYV4); assay: Inhibition of CDK12/Cyclin K (unknown origin) using pS7-CTD peptide and ATP as substrate incubated for 120 mins by ADP-Glo reagent based luminescence analysis; type: protein-complex assay
[2] = GSH reactivity assessed as half life to adduct formation at 1 uM by LC-MS/MS analysis; type: physicochemical
[3] = GSH reactivity assessed as half life to adduct formation at 0.1 uM by LC-MS/MS analysis; type: physicochemical
[4] = GSH reactivity assessed as half life to adduct formation at 10 uM by LC-MS/MS analysis; type: physicochemical
[5] = Kinetic solubility of the compound in phosphate buffer at pH 7.4 measured after 24 hrs by HPLC-UV analysis; type: physicochemical; conditions: read-out: Kinetic_solubility
[6] = Protein binding in mouse plasma assessed as free fraction at 400 uM incubated for 4 hrs by equilibrium dialysis method based LC-MS/MS analysis; type: ADME, cell-free
[7] = Protein binding in human plasma assessed as free fraction at 400 uM incubated for 4 hrs by equilibrium dialysis method based LC-MS/MS analysis; type: ADME, cell-free
[8] = Toxicity against Balb/c mouse xenografted with human SUM149PT cells assessed as reduction in body weight at 20 mg/kg, po administered once daily via gavage for 2 days and measured after second dose; type: organism-based; set-up: scale not given: the % may be the effect or the level left; conditions: in vivo, 48 h, time 2 day
[9] = Permeability of the compound in human Caco-2 cells at 2 uM incubated for 2 hrs by LC-MS/MS analysis; type: ADME, cell-based; conditions: read-out: permeability
[10] = Volume of distribution at steady state in CD-1 mouse at 1 mg/kg, iv measured for 24 hrs by LC-MS/MS analysis; type: ADME, organism-based; conditions: in vivo, read-out: Vdss
[11] = Half life in CD-1 mouse at 5 mg/kg, po measured for 24 hrs by LC-MS/MS analysis; type: ADME, organism-based; conditions: in vivo
[12] = Clearance in CD-1 mouse at 1 mg/kg, iv measured for 24 hrs by LC-MS/MS analysis; type: ADME, organism-based; conditions: in vivo
[13] = AUC (0 to infinity) in CD-1 mouse at 5 mg/kg, po by LC-MS/MS analysis; type: ADME, organism-based; conditions: in vivo
[14] = Cmax in CD-1 mouse at 5 mg/kg, po measured for 24 hrs by LC-MS/MS analysis; type: ADME, organism-based; conditions: in vivo
[15] = Oral bioavailability in CD-1 mouse at 5 mg/kg measured for 24 hrs by LC-MS/MS analysis; type: ADME, organism-based; conditions: in vivo
[16] = AUC (0 to infinity) in CD-1 mouse at 1 mg/kg, iv by LC-MS/MS analysis; type: ADME, organism-based; conditions: in vivo

CDK12/Cyclin K, sequence (O75909 whole entry): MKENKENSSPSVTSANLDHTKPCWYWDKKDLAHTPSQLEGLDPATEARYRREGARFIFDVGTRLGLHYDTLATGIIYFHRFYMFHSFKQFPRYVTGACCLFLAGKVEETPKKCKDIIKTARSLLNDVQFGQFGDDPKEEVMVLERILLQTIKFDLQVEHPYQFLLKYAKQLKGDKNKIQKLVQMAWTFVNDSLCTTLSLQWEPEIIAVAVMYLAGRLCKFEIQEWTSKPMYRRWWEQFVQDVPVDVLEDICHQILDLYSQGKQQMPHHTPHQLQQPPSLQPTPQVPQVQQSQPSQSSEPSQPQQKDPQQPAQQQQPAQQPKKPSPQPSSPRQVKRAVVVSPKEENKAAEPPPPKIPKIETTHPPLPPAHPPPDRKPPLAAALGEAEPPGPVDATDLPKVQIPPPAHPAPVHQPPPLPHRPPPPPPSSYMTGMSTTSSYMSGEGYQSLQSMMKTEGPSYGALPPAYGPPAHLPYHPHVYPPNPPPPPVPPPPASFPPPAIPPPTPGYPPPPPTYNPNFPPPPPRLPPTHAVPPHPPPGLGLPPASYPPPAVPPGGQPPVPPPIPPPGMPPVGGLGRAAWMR
CDK12/Cyclin K, sequence (Q9NYV4 whole entry): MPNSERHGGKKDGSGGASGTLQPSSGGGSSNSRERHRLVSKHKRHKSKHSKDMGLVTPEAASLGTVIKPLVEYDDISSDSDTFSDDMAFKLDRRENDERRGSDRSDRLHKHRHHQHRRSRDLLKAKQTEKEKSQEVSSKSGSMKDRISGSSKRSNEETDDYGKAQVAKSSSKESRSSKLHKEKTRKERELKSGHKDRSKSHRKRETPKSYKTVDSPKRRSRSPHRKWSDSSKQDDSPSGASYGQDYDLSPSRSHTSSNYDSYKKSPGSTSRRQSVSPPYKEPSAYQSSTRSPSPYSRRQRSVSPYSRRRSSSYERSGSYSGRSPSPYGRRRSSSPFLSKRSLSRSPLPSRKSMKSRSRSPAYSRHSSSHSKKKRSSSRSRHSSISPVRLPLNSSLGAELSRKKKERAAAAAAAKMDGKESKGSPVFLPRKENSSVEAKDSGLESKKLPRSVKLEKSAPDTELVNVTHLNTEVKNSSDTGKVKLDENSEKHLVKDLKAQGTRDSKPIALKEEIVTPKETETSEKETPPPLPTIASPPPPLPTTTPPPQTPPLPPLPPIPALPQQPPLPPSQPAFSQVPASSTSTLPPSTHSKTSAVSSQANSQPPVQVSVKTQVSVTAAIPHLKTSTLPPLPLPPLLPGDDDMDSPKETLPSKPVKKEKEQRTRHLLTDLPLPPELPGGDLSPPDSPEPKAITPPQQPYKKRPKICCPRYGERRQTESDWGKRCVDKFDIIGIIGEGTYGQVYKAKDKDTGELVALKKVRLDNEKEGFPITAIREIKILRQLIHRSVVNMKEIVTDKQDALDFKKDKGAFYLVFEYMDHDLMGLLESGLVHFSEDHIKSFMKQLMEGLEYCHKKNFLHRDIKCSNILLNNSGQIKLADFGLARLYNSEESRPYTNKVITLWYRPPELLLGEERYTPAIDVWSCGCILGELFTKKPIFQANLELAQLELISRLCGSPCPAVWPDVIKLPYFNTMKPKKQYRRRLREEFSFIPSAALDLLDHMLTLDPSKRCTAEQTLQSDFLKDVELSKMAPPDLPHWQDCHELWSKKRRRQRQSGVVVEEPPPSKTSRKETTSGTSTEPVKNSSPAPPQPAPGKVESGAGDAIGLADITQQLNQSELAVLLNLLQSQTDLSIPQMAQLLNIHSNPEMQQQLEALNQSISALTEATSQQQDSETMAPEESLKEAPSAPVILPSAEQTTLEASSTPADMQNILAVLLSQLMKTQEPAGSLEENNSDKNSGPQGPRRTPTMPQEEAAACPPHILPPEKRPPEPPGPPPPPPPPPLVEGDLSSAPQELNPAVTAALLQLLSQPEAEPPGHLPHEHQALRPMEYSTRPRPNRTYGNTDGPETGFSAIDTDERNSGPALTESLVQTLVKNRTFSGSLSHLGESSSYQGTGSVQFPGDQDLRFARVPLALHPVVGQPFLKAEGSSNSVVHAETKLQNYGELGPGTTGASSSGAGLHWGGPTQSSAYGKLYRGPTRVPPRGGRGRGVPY
Cyclin-dependent kinase 13/Cyclin-K, sequence (Q14004 whole entry): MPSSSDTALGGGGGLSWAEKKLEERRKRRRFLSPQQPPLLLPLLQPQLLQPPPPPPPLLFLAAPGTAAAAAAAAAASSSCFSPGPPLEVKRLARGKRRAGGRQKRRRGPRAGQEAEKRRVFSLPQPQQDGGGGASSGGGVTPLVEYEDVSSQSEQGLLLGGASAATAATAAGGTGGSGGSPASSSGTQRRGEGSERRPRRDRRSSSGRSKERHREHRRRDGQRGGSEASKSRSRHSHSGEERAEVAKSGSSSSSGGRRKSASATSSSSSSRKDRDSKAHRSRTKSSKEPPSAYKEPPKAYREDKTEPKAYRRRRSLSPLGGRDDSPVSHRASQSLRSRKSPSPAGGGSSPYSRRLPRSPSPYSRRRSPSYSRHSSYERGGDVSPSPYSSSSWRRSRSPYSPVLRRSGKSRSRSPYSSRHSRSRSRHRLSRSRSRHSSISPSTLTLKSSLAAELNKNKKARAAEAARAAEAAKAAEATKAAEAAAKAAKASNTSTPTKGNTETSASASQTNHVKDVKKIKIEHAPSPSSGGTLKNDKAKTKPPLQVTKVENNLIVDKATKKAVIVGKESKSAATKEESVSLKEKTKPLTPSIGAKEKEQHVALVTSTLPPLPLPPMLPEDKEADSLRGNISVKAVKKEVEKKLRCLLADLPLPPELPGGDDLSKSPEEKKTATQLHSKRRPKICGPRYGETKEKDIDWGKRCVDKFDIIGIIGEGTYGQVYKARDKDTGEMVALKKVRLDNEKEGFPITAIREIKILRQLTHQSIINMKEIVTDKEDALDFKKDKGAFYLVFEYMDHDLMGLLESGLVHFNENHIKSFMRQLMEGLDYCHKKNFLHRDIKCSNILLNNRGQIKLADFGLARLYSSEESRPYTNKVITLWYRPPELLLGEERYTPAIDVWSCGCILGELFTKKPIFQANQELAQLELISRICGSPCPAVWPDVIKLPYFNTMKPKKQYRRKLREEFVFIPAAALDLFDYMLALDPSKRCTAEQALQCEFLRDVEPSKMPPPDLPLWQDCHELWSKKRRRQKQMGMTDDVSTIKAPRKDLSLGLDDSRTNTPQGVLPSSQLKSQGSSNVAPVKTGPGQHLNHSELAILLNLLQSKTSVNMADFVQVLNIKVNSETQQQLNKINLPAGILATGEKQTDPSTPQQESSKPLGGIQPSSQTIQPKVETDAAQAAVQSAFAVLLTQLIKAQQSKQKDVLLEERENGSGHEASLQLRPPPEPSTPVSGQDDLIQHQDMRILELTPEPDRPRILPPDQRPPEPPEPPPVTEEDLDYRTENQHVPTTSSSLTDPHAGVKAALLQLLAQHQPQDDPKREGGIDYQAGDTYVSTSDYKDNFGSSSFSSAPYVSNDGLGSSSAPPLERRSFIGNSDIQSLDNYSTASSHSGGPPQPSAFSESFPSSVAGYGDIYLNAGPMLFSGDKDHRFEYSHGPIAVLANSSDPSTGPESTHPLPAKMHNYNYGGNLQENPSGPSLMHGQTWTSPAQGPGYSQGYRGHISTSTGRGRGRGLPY
Cyclin-dependent kinase 13/Cyclin-K, sequence (O75909 whole entry, further chain): as the sequence (O75909 whole entry) above

Work on `C=CC(=O)N1CCc2c(nc(C)nc2N2CC[C@@H](Nc3ncc(Cl)c(OC)n3)C2)C1` yielded an IC50 (SUM149PT) of 155 nM and an IC50 [1] of 74.8 nM.

`C=CC(=O)N1CCc2c(nc(N3CCCC3=O)nc2N2CC[C@@H](Nc3ncc(Cl)c(OC)n3)C2)C1` gave an IC50 (SUM149PT) of 457 nM and an IC50 [1] of 198 nM.

Compound `C=CC(=O)N1CCC(C(=O)N2CC[C@@H](Nc3ncc(Cl)c(OC)n3)C2)CC1` has an IC50 (CDK12/Cyclin K) of 2270 nM and an IC50 [1] of 1760 nM.

For `C=CC(=O)N1Cc2ccnc(N3CC[C@@H](Nc4ncc(Cl)c(OC)n4)C3)c2C1`, the IC50 [1] was 76.1 nM.

In the case of `C=CC(=O)N1CCc2c(ccnc2N2CC[C@@H](Nc3ncc(Cl)c(OC)n3)C2)C1`, the IC50 (SUM149PT) is reported as 317 nM and the IC50 [1] is reported as 107 nM.

In the case of `C=CC(=O)[C@H]1CC[C@H](C(=O)N2CC[C@@H](Nc3ncc(Cl)c(OC)n3)C2)CC1`, the IC50 (CDK12/Cyclin K) is reported as 3740 nM and the IC50 [1] is reported as 2740 nM.

`C=CC(=O)N1Cc2ncnc(N3CC[C@@H](Nc4ncc(Cl)c(OC)n4)C3)c2C1` showed an IC50 (SUM149PT) of 509 nM and an IC50 [1] of 343 nM.

For `C=CC(=O)NC12CC(C(=O)N3CC[C@@H](Nc4ncc(Cl)c(OC)n4)C3)(C1)C2`, the IC50 (CDK12/Cyclin K) was 2410 nM and the IC50 [1] was 2750 nM.

In the case of `C=CC(=O)Nc1ccc(C(=O)N2CC[C@@H](Nc3ncc(Cl)c(OC)n3)C2)cc1`, the IC50 (CDK12/Cyclin K) is reported as 6.9 nM, the t1/2 [2] is reported as 40.2 min and the t1/2 [3] is reported as 39.7 min. The t1/2 [4] was 43 min, the IC50 (SUM149PT) was 2.64 nM and the solubility kinetic at 24 h [5] was 48.2 µg/mL (≈ 120 µM). For the same compound, the fraction unbound at 4 h, 400 µM [6] was 0.038, the fraction unbound at 4 h, 400 µM [7] was 0.003 and the IC50 [1] was 9.22 nM. For the same compound, the Activity [8] was 10%, the Papp at 2 h, 2 µM [9] was 2.87 ×10⁻⁶ cm/s and the Vd [10] was 0.66 L/kg.

Work on `C=CC(=O)N1CC2(CCC(C(=O)N3CC[C@@H](Nc4ncc(Cl)c(OC)n4)C3)CC2)C1` yielded an IC50 (CDK12/Cyclin K) of 669 nM and an IC50 [1] of 756 nM.

`C=CC(=O)N1CCc2c(nc(OC)nc2N2CC[C@@H](Nc3ncc(Cl)c(OC)n3)C2)C1` gave an IC50 (SUM149PT) of 336 nM and an IC50 [1] of 95.4 nM.

Compound `C=CC(=O)N1CCc2c(nc(N3CCN(C)C(=O)C3)nc2N2CC[C@@H](Nc3ncc(Cl)c(OC)n3)C2)C1` has an IC50 (SUM149PT) of 276 nM.

Compound `C=CC(=O)N1CCc2c(nc(N3CCOCC3)nc2N2CC[C@@H](Nc3ncc(Cl)c(OC)n3)C2)C1` has an IC50 (SUM149PT) of 532 nM and an IC50 [1] of 165 nM.

Work on `CC#CC(=O)N1CCc2c(ncnc2N2CC[C@@H](Nc3ncc(Cl)c(OC)n3)C2)C1` yielded a half-life [11] of 15 min, a t1/2 [2] of 324.4 min and a clearance [12] of 179 mL/min/kg. For the same compound, the t1/2 [3] was 315.5 min, the t1/2 [4] was 379.4 min and the IC50 (SUM149PT) was 226 nM. For the same compound, the IC50 [1] was 235 nM, the AUC(0-inf) [13] was 54.7 ng·h/mL and the Vd [10] was 0.35 L/kg. It also gave a Cmax [14] of 101 ng/mL, a bioavailability [15] of 11.2% and an AUC(0-inf) [16] of 93.8 ng·h/mL.
